Data reported in ChEMBL document CHEMBL2057063, “Exogenous fluorescent tracer agents based on pegylated pyrazine dyes for real-time point-of-care measurement of glomerular filtration rate” (Bioorg Med Chem, 2012).

Columns and labels:
[1] = Drug excretion in Sprague-Dawley rat urine administered via tail vein measured after 6 hrs by HPLC analysis; type: ADME; details: iv, read-out: Ae
[2] = Plasma protein binding in rat at 20 uM after 1 hr by HPLC analysis; type: ADME, cell-free; details: read-out: PPB (converted)
[3] = Terminal elimination half life in Sprague-Dawley rat plasma; type: ADME, cell-free; details: read-out: beta t1/2
Rattus norvegicus = species: Rattus norvegicus; experiment: Volume of distribution in Sprague-Dawley rat; type: ADME, organism-based; details: in vivo
[4] = Clearance in Sprague-Dawley rat; type: ADME, organism-based; details: in vivo
[5] = Clearance in Sprague-Dawley rat in presence of 70 mg/kg probenecid administered 10 mins prior to compound treatment; type: ADME, organism-based; design: dose 70 mg/kg; details: in vivo, with probenecid 70 mg/kg
[6] = Terminal elimination half life in Sprague-Dawley rat blood; type: ADME, tissue-based; details: read-out: beta t1/2

O=C(NCC(O)CO)c1nc(NC[C@H](O)CO)c(C(=O)NCC(O)CO)nc1NC[C@H](O)CO (some centres undefined)
dose excreted at 6 h [1]: 88%

COCCOCCOCCOCCOCCOCCOCCOCCOCCOCCOCCOCCOCCOCCOCCOCCOCCOCCOCCOCCOCCOCCOCCOCCNC(=O)c1nc(N)c(C(=O)NCCOCCOCCOCCOCCOCCOCCOCCOCCOCCOCCOCCOCCOCCOCCOCCOCCOCCOCCOCCOCCOCCOCCOCCOC)nc1N
fraction unbound at 1 h, 20 µM [2]: 0.95
dose excreted at 6 h [1]: 96%
half-life [3]: 25 min
Vd (Rattus norvegicus): 64 mL
clearance [4]: 2.8 mL/min
clearance [5]: 2.7 mL/min

COCCOCCOCCNc1nc(C(=O)NCCOCCOCCOCCOCCOCCOCCOCCOCCOCCOCCOCCOCCOCCOCCOCCOCCOCCOCCOCCOCCOCCOCCOCCOC)c(NCCOCCOCCOC)nc1C(=O)NCCOCCOCCOCCOCCOCCOCCOCCOCCOCCOCCOCCOCCOCCOCCOCCOCCOCCOCCOCCOCCOCCOCCOCCOC
fraction unbound at 1 h, 20 µM [2]: 0.89
dose excreted at 6 h [1]: 96%

COCCOCCOCCOCCOCCOCCOCCOCCOCCOCCOCCOCCCNc1nc(C(=O)NCCOCCOCCOCCOCCOCCOCCOCCOCCOCCOCCOCCOCCOCCOCCOCCOCCOCCOCCOCCOCCOCCOCCOCCOC)c(NCCCOCCOCCOCCOCCOCCOCCOCCOCCOCCOCCOCCOC)nc1C(=O)NCCOCCOCCOCCOCCOCCOCCOCCOCCOCCOCCOCCOCCOCCOCCOCCOCCOCCOCCOCCOCCOCCOCCOCCOC
fraction unbound at 1 h, 20 µM [2]: 0.59
dose excreted at 6 h [1]: 89%
half-life [3]: 31 min
Vd (Rattus norvegicus): 68 mL

COCCOCCOCCOCCOCCOCCOCCOCCNC(=O)c1nc(N)c(C(=O)NCCOCCOCCOCCOCCOCCOCCOCCOC)nc1N
fraction unbound at 1 h, 20 µM [2]: 1
dose excreted at 6 h [1]: 45%

Nc1nc(C(=O)N[C@H](CO)C(=O)O)c(N)nc1C(=O)N[C@H](CO)C(=O)O [RELMAPIRAZIN]
dose excreted at 6 h [1]: 90%
Vd (Rattus norvegicus): 83 mL

COCCOCCOCCOCCOCCOCCOCCOCCOCCOCCOCCOCCCNc1nc(C(=O)NCCOCCOCCOCCOCCOCCOCCOCCOCCOCCOCCOCCOC)c(NCCCOCCOCCOCCOCCOCCOCCOCCOCCOCCOCCOCCOC)nc1C(=O)NCCOCCOCCOCCOCCOCCOCCOCCOCCOCCOCCOCCOC
fraction unbound at 1 h, 20 µM [2]: 0.97
dose excreted at 6 h [1]: 97%
half-life [3]: 19 min
Vd (Rattus norvegicus): 61 mL
clearance [4]: 3.1 mL/min
clearance [5]: 3.3 mL/min
half-life [6]: 21.6 min

COCCOCCOCCOCCOCCOCCOCCOCCOCCOCCOCCOCCNC(=O)c1nc(N)c(C(=O)NCCOCCOCCOCCOCCOCCOCCOCCOCCOCCOCCOCCOC)nc1N
fraction unbound at 1 h, 20 µM [2]: 1
dose excreted at 6 h [1]: 71%
half-life [3]: 20 min
Vd (Rattus norvegicus): 70 mL

COCCOCCOCCOCCOCCOCCOCCOCCOCCOCCOCCOCCOCCOCCOCCOCCOCCOCCOCCOCCOCCOCCOCCOCCCNc1nc(C(=O)NCCOCCOCCOCCOCCOCCOCCOCCOCCOCCOCCOCCOCCOCCOCCOCCOCCOCCOCCOCCOCCOCCOCCOCCOC)c(NCCCOCCOCCOCCOCCOCCOCCOCCOCCOCCOCCOCCOCCOCCOCCOCCOCCOCCOCCOCCOCCOCCOCCOCCOC)nc1C(=O)NCCOCCOCCOCCOCCOCCOCCOCCOCCOCCOCCOCCOCCOCCOCCOCCOCCOCCOCCOCCOCCOCCOCCOCCOC
fraction unbound at 1 h, 20 µM [2]: 0.61
dose excreted at 6 h [1]: 86%

COCCOCCOCCOCCNC(=O)c1nc(N)c(C(=O)NCCOCCOCCOCCOC)nc1N
fraction unbound at 1 h, 20 µM [2]: 1
dose excreted at 6 h [1]: 41%

COCCOCCOCCOCCCNc1nc(C(=O)NCCOCCOCCOCCOCCOCCOCCOCCOCCOCCOCCOCCOC)c(NCCCOCCOCCOCCOC)nc1C(=O)NCCOCCOCCOCCOCCOCCOCCOCCOCCOCCOCCOCCOC
fraction unbound at 1 h, 20 µM [2]: 1
dose excreted at 6 h [1]: 86%

COCCOCCOCCOCCOCCOCCOCCOCCCNc1nc(C(=O)NCCOCCOCCOCCOCCOCCOCCOCCOCCOCCOCCOCCOC)c(NCCCOCCOCCOCCOCCOCCOCCOCCOC)nc1C(=O)NCCOCCOCCOCCOCCOCCOCCOCCOCCOCCOCCOCCOC
fraction unbound at 1 h, 20 µM [2]: 0.99
dose excreted at 6 h [1]: 87%

CCCNc1nc(C(=O)NCCOCCOCCOCCOCCOCCOCCOCCOCCOCCOCCOCCOCCOCCOCCOCCOCCOCCOCCOCCOCCOCCOCCOCCOC)c(NCCC)nc1C(=O)NCCOCCOCCOCCOCCOCCOCCOCCOCCOCCOCCOCCOCCOCCOCCOCCOCCOCCOCCOCCOCCOCCOCCOCCOC
fraction unbound at 1 h, 20 µM [2]: 0.87
dose excreted at 6 h [1]: 85%

CNC(=O)c1c(I)c(NC(C)=O)c(I)c(C(=O)[O-])c1I.[Na+] [IOTHALAMATE SODIUM]
dose excreted at 6 h [1]: 80%
Vd (Rattus norvegicus): 104 mL
clearance [4]: 2.5 mL/min
clearance [5]: 2.2 mL/min

COCCOCCOCCOCCOCCOCCOCCOCCCNc1nc(C(=O)NCCOCCOCCOCCOCCOCCOCCOCCOCCOCCOCCOCCOCCOCCOCCOCCOCCOCCOCCOCCOCCOCCOCCOCCOC)c(NCCCOCCOCCOCCOCCOCCOCCOCCOC)nc1C(=O)NCCOCCOCCOCCOCCOCCOCCOCCOCCOCCOCCOCCOCCOCCOCCOCCOCCOCCOCCOCCOCCOCCOCCOCCOC
fraction unbound at 1 h, 20 µM [2]: 0.7
dose excreted at 6 h [1]: 92%
